Results taken from US20210340572A1, “HIGH-CONTENT IMAGING OF MICROFLUIDIC DEVICES” (EMULATE, Inc., priority 2019, published 2021).

How the values were obtained:
[1] = system: microfluidic devices seeded with human liver cells; assay: APAP metabolite quantification by LC-MS in human chips; format: in vitro ADME; conditions: daily 3 mM for 20 days, flow 10 μL/hr
Excerpt: After APAP exposure to microfluidic devices seeded with human liver cells, effluent metabolite levels were quantified using LC-MS analysis. […] APAP-Glucuronide (APAP-Glu), the primary metabolite of APAP, was not quantified using a standard curve. Rather, the LC-MS peak area of APAP-Glu was reported corresponding to each sample.

[2] = system: microfluidic devices seeded with human liver cells; assay: Albumin secretion, microfluidic devices seeded with human liver cells; format: cell-based
Excerpt: Prior to cell seeding, microfluidic devices, in this case S-1 Chips (Emulate, Inc. Boston, Mass., USA), were functionalized using Emulate's proprietary protocols and reagents (ERT™), including those described herein. After surface functionalization, both channels of the microfluidic device were coated with species-specific extracellular matrices (ECM). For the human bound microfluidic device, a mixture of collagen type I (Corning, Corning, N.Y., USA) and fibronectin, e.g. bovine, (Gibco) was used; for the rat bound microfluidic devices a mixture of collagen type IV, e.g. human placenta, (Sigma-Aldrich, St. Louis, Mo., USA) and fibronectin (Gibco) was used; for the dog bound microfluidic devices a mixture of collagen I (Corning), collagen type IV (Sigma-Aldrich), and fibronectin (Gibco) was used. […] For the dual-cell culture model (hepatocytes and endothelial cells), the LSECs were seeded at a concentration of 2-4 million cells/mL in the lower vascular channel. […] After cell seeding, the upper channel of the microfluidic device was maintained in William's E Medium (WEM) containing Glutamax (Gibco), ITS+(Corning), dexamethasone (Sigma-Aldrich), ascorbic acid (Sigma-Aldrich), fetal bovine serum (FBS) (Sigma-Aldrich), and Penicillin/Streptomycin (Sigma-Aldrich). The vascular channel of the microfluidic device was maintained with species-specific endothelial media (Emulate, Inc.). Two days after seeding, the microfluidic devices were connected to the Human Emulation System™ (Emulate, Inc.), as described in part herein, and both of the microfluidic device channels were perfused at 30 μL/hr to provide a continuous supply of fresh media for the duration of the experiments. Albumin secretion from the upper channel was quantified using ELISA kits for human, rat, and dog models effluent samples (human and rat: Abcam; dog: Immunology Consultants Laboratory, Inc., Portland, Oreg., USA) and the assays were performed according to the protocol provided by each vendor.

[3] = system: microfluidic devices seeded with human liver cells; assay: Cytokine release (IL-6, MCP-1, IP-10) from the vascular channel of human chips; format: cell-based; conditions: human quadruple-cell chips
Procedure: Cytokines: Release of IL-6, MCP-1, and IP-10 from the vascular channel was quantified using U-PLEX biomarker human assays (Meso Scale Diagnostics, Rockville, Md., USA) and the assays were performed according to the protocol provided by the vendor.

[4] = Phase I dose-escalating study, clinical chemistry (ALT, AST); format: in vivo, human; conditions: Phase I clinical trial
Procedure: A double-blind, placebo-controlled, randomized, dose-escalating, sequential group design was conducted in 2 Parts. Subjects received daily doses of JNJ-28312141 or placebo for a total of 2 weeks (the first dose on Day 1 and then daily on Days 3 to 14). Part 1 included 5 cohorts of healthy male or female subjects. In Part 2 of the study, 2 cohorts of postmenopausal women (PMW) were enrolled. Within each cohort of 12 subjects, 9 subjects were randomized to JNJ-1, and 3 subjects were randomized to placebo. Dose escalation only occurred after the Sponsor and the Investigator had performed a satisfactory review of the preliminary safety data including those obtained on the post-study follow up visit (anytime between Days 30 to 32), and of the drug concentration and PK data (if available) at the current dose level. In addition to efficacy endpoints, and pharmacokinetics, an assessment of safety included measurement of clinical chemistry parameters, including ALT and AST.

[5] = Repeat-dose toxicity study of JNJ-1 in rats; format: in vivo; conditions: rat study
Procedure: (§1) JNJ-1, prepared in purified water, was administered once daily for 14 days to 5 male and 5 female rats at doses of 5, 25, and 125 mg/kg. In a separate study, JNJ-1, also in purified water, was administered once daily for 4 weeks to 5 male and 5 female dogs at 0 or 40 mg/kg/day, and to 3 males and 3 female dogs at 2 or 10 mg/kg/day. Mortality, clinical observations, body weight, food consumption, clinical pathology, gross necropsy and microscopic examination of selected tissues, and toxicokinetics were evaluated. Rats or dogs were fasted overnight prior to blood collection for measurement of clinical pathology parameters (including AST and ALT) at the end of 14 days (rats) or 4 weeks (dogs) of dosing. Histology slides (hematoxylin and eosin staining and Mason's Trichrome staining) of the liver tissues were prepared and evaluated microscopically. The quantification of JNJ-1 was conducted using a qualified liquid chromatographic-triple quadrupole mass spectrometric (LC-MS/MS) procedure.

Kupffer cells = assay: Kupffer cell count (CD68-positive cells) in human chips; format: cell-based; conditions: human quadruple-cell chips
Procedure: Microfluidic devices seeded with liver cells and static sandwich plate cultures were fixed with 4% paraformaldehyde for 15 minutes at room temperature, washed with PBS, and permeabilized (saponin 1% with 10% serum in PBS). Blocking and incubation with the primary antibodies (overnight in PBS containing 1% BSA or PBS containing 10% serum and 1% BSA) was followed by a two-hour incubation with secondary antibodies (Cell Signaling, Danvers, Mass., USA) in the same blocking buffer. Immunostaining was performed with specific primary antibodies (anti-MRP2, anti-stabilin-1, anti-BSEP, anti-α-SMA, anti-CD68; Abcam, Cambridge, Mass., USA) and images were acquired with either an Olympus fluorescence microscope (IX83) or Zeiss confocal microscope (AxiovertZ1 LSM880).
The number of CD68- or α-SMA-positive cells in the vascular channel in each group was counted in each field of view ([…]) and quantified.

[6] = Repeat-dose toxicity study of JNJ-1 in dogs; format: in vivo; conditions: dog study
Procedure: as §1

[7] = system: 3D human spheroid hepatic cultures; conditions: compared with human chip IC50; cited from earlier work
[8] = system: microfluidic devices seeded with dog liver cells; assay: Albumin secretion, microfluidic devices seeded with dog liver cells; format: cell-based; conditions: Canis lupus familiaris, 168 h; dual-cell dog chips, daily administration 1-100 μM, 7 days; read-out: IC50, decrease in albumin secretion
Excerpt: (§2) Prior to cell seeding, microfluidic devices, in this case S-1 Chips (Emulate, Inc. Boston, Mass., USA), were functionalized using Emulate's proprietary protocols and reagents (ERT™), including those described herein. After surface functionalization, both channels of the microfluidic device were coated with species-specific extracellular matrices (ECM). For the human bound microfluidic device, a mixture of collagen type I (Corning, Corning, N.Y., USA) and fibronectin, e.g. bovine, (Gibco) was used; for the rat bound microfluidic devices a mixture of collagen type IV, e.g. human placenta, (Sigma-Aldrich, St. Louis, Mo., USA) and fibronectin (Gibco) was used; for the dog bound microfluidic devices a mixture of collagen I (Corning), collagen type IV (Sigma-Aldrich), and fibronectin (Gibco) was used. […] For the dual-cell culture model (hepatocytes and endothelial cells), the LSECs were seeded at a concentration of 2-4 million cells/mL in the lower vascular channel. […] Albumin secretion from the upper channel was quantified using ELISA kits for human, rat, and dog models effluent samples (human and rat: Abcam; dog: Immunology Consultants Laboratory, Inc., Portland, Oreg., USA) and the assays were performed according to the protocol provided by each vendor.

[9] = system: microfluidic devices seeded with rat liver cells; assay: Albumin secretion / hepatocyte function, microfluidic devices seeded with rat liver cells; format: cell-based; conditions: Hepatocyte, 168 h; dual-cell rat chips, daily administration 1-100 μM, 7 days; read-out: IC50, decrease in albumin secretion
Excerpt: as §2

[10] = human plasma; cited from earlier work
BSEP = target: T1, BSEP (Homo sapiens, UniProt O95342); assay: CLF efflux (BSEP activity) in human hepatocytes on chip; format: cell-based; conditions: 30 μM
T1 construct: Primary rat, dog or human hepatocytes were cultured in the upper parenchymal channel; endogenous in cells; host or cells: primary human hepatocytes in a microfluidic Liver-Chip, co-cultured with LSECs
T1 sequence (O95342 whole entry): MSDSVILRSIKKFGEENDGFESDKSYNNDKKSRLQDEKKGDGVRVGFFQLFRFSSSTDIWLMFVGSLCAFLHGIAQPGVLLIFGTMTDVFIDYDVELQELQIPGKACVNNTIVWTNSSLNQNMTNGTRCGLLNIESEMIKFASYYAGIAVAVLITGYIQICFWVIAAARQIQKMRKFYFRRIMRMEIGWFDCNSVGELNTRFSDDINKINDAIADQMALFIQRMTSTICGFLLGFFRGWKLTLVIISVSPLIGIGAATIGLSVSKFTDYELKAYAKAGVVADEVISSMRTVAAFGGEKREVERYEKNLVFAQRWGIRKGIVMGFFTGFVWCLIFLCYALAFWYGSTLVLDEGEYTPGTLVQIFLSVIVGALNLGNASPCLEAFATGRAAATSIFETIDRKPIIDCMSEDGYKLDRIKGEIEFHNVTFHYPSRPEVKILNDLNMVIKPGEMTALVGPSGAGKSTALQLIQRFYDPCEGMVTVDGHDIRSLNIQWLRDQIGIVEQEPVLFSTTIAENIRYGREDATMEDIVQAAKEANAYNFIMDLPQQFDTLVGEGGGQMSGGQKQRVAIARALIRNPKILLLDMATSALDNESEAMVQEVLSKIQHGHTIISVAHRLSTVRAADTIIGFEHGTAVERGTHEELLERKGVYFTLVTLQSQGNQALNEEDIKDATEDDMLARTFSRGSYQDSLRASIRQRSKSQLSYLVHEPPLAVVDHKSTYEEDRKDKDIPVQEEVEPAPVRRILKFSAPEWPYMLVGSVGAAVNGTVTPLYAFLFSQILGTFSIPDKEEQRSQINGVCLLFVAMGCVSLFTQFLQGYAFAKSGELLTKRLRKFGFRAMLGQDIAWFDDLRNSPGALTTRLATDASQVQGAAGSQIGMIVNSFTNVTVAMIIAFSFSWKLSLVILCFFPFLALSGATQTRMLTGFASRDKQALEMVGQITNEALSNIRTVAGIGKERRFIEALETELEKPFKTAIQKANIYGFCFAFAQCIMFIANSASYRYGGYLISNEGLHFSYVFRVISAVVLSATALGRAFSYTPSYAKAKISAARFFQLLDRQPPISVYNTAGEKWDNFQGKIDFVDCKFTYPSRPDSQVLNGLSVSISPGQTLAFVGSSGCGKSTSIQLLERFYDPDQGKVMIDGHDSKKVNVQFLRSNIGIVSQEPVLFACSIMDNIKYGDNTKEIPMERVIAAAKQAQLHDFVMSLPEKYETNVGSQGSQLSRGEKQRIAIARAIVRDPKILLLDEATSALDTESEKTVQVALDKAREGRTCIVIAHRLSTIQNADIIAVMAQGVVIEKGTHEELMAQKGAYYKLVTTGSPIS
Excerpt: Microfluidic devices seeded with liver cells were stained in the upper channel with 5(6)-Carboxy-2′,7′-dichlorofluorescein diacetate (CDFDA) (ThermoFisher) to visualize bile canaliculi and MRP2 activity, cholyl-lysyl-fluorescein (CLF) (Corning) to visualize bile canaliculi and BSEP activity, Nile red (ThermoFisher) or AdipoRed (Lonza) to visualize lipid droplet accumulation, Tetramethylrhodamine, methyl ester (TMRM) (ThermoFisher) to visualize active mitochondria, and CellROX® (ThermoFisher) to visualize cellular oxidative stress. Each staining solution was prepared in blank medium or compound dosing medium and added to the upper channel, incubated for 15 minutes at 37° C., and washed three times with medium. The stained microfluidic devices were imaged using a specific filter, and were de-blurred with Olympus cellSens software. Using ImageJ-Fiji, the fluorescent channel images were histogram adjusted to remove background, followed by fluorescence quantification using the Integrated Density calculation function.
Both a brightfield and a fluorescence image was taken from each field of view. […] These criteria were determined empirically using a small test set of images and then applied to images for the analysis. […] The data for treated and control samples were quantified by computing the area percentage of CLF-labeled bile canaliculi within each field of view (FOV).

[11] = system: primary human hepatocytes and liver sinusoidal endothelial cells (LSECs); assay: High-content confocal imaging of microfluidic devices seeded with liver cells; format: cell-based; conditions: 10 μM, six hours of exposure
Procedure: Microfluidic devices were obtained from Emulate Inc. (USA) and are illustrated in FIG. 1A. The channels of the microfluidic devices were coated with a proprietary mixture of extracellular matrix and were incubated overnight at 37° C. Primary human cryopreserved hepatocytes sourced from ThermoFisher, as one example, were seeded in the top channel at a density of 3.5×10^6 cells/mL, and were left to form an attached monolayer at 37° C. in a humidified incubator with a 95%/5% ratio of air to CO2.
Twenty-four hours after seeding, the hepatocyte monolayer was overlaid with Matrigel Matrix sourced from Corning, USA. Primary human cryopreserved liver sinusoidal endothelial cells, also known as LSECs, were seeded on the bottom channel of the microfluidic device at a density of 2 to 4×10^6 cells/mL in endothelial medium, also known as CSC medium or Base LSEC Culture Medium; CSC basal Medium plus Culture-Boost (2%), Cell Systems, and Pen/Strep (1%), Sigma. In some embodiments, endothelial cells are cultured in Complete LSEC Culture Medium, Base LSEC Culture Medium plus 10% FBS.
Microfluidic devices were inverted for 2 hours to allow attachment underneath the membrane, and then inverted back before being connected to a platform containing a pneumatic pump source from Emulate Inc. Media was flowed through both channels at a flow rate of 30 μL/hour and was refreshed every other day.
The effects of agents, such as staurosporine on cell phenotype was evaluated. Microfluidic devices were perfused with staurosporine (0 and 10 μM) for 6 hours at a flow rate of 30 μL/hour. A compound was also tested in the microfluidic devices seeded with liver cells. The microfluidic devices seeded with liver cells were perfused with the compound at the concentrations of 0.1 μM, 1 μM or 10 μM for 3 hours, after which the compound was removed from the media flow. The protocol was chosen as it was analogous to how the compound has been evaluated in vivo. […]

## CC(=O)Nc1ccc(O)cc1 [APAP, acetaminophen]
[1]
  APAP glucuronide in parenchymal and vascular channels: significant amounts
[2]; quadruple-cell human chips, 7 days
  albumin synthesis / secretion: decreased

## CN(C)CC(=O)N1CCC(c2ccc(NC(=O)c3nc(C#N)c[nH]3)c(C3=CCCCC3)c2)CC1 [JNJ compound]
[3]
  interleukin 6 (IL-6) in the vascular channel: dose-dependent decrease
  monocyte chemoattractant protein-1 (MCP-1) in the vascular channel: dose-dependent decrease
[4]
  healthy subjects with elevation of alanine aminotransferase (ALT): 3/12
  healthy subjects with elevation of aspartate aminotransferase (AST): 7/12
[5]
  microscopic changes in the liver: without any correlative microscopic changes
  transaminases: Dose-related elevation
Kupffer cells
  Kupffer cells (CD68-positive cells): decreased number
[6]
  microscopic changes in the liver: without any correlative microscopic changes
  transaminases: Dose-related elevation

## COc1ccccc1Oc1c(NS(=O)(=O)c2ccc(C(C)(C)C)cc2)nc(-c2ncccn2)nc1OCCO [bosentan]
[7]
  IC50 in 3D human spheroid hepatic cultures relative to human chip: more than 10 fold higher
[2]; 72 h, dual-cell human chips, daily administration 1-100 μM, 3 days, read-out: IC50, decrease in albumin secretion
  IC50: 10 µM
[8]
  IC50: 30 µM
[9]
  IC50: > 100 µM
[10]
  plasma concentration (Cmax) associated with DILI in humans: 7.4 µM
BSEP
  intracellular accumulation of CLF: intracellular accumulation
BSEP; co-treatment with CLF
  reduction in CLF efflux: > 50%

## CN[C@@H]1C[C@H]2O[C@@](C)([C@@H]1OC)n1c3ccccc3c3c4c(c5c6ccccc6n2c5c31)C(=O)NC4 [staurosporine]
[11]
  LSECs (cell number): complete loss of LSECs
  apoptotic marker (CC3): marked increases
  hepatocyte cell number: little if any effect
